Measured values taken from patent US20040038888A1 (priority 2002, published 2004).

Assays:
[1] = test system: primary adult NSC; test: Culture of neurospheres for counting and photographing; format: cell-based, mouse; settings: PACAP 100 nM in place of EGF, 7 days, versus control
Protocol: Anterior lateral wall of the lateral ventricle was dissociated as described in Example 2 (Method A), and the cells resuspended in Neurosphere medium without EGF. The cell suspension was divided into a 24-well plate with triplicates of control (no addition), PACAP treated and EGF (1 nM) treated cells. The final concentration of PACAP was 100 nM. After 7 days the spheres were counted and photographed using a Nikon Eclipse TE300 microscope and Nikon Spot Insight camera.

[2] = test system: mouse adult neural stem cells; test: Intracellular ATP assay, adult mouse NSC, non-adherent culture; format: cell-based
Protocol: The anterior lateral wall of the lateral ventricle of 5-6 week old mice was enzymatically dissociated in 0.8 mg/ml hyaluronidase and 0.5 mg/ml trypsin in DMEM containing 4.5 mg/ml glucose and 80 units/ml DNase at 37° C. for 20 min. The cells were gently triturated and mixed with three volumes of Neurosphere medium (DMEM/F12, B27 supplement, 12.5 mM HEPES pH7.4) containing 20 ng/ml EGF (unless otherwise stated), 100 units/ml penicillin and 100μg/ml streptomycin. After passing through a 70 μm strainer, the cells were pelleted at 160×g for 5 min. The supernatant was subsequently removed and the cells resuspended in Neurosphere medium supplemented as above, plated out in culture dishes and incubated at 37° C. Neurospheres were ready to be split approximately 7 days after plating.
To split neurosphere cultures, neurospheres were collected by centrifugation at 160×g for 5 min. The neurospheres were resuspended in 0.5 ml Trypsin/EDTA in HBSS (1×), incubated at 37° C. for 2 min and triturated gently to aid dissociation. Following a further 3 min incubation at 37° C. and trituration, 3 volumes of ice cold NSPH-media-EGF were added to stop further trypsin activity. The cells were pelleted at 220×g for 4 min, resuspended in fresh Neurosphere medium supplemented with 20 ng/ml EGF and 1 nM bFGF plated out and incubated at 37° C.
Mouse neurospheres, cultured as described above, from passage 2, were seeded in DMEM/F12 supplemented with B27 into a 96-well plate as single cells (10000 cells/well) to the substances to be measured were added at the concentrations indicated. After 3 days incubation, intracellular ATP was measured using the ATP-SL kit from BioThema, Sweden, according to the manufacturer's instructions. PACAP and VIP were purchased from Bachem. Maxadilan was a kind gift from Richard G Titus, Dept Microbiology, Immunology and Pathology, College of Veterinary Medicine and Biological Sciences, Colorado State University.
In experiments where signalling pathways were examined, cells were seeded as single cells as mentioned above. PACAP, 100 nM, was co incubated with 10 uM PKA inhibitor H89 (Alexis-Biochemicals) or 1 uM PLC inhibitor U73122 (Alexis-Biochemicals) or 1 uM of the PKC inhibitor Gö6976 (Sigma-Aldrich). Cells were incubated for 4 days before measurements of ATP.
In the experiment analysing the combinatory effect of PACAP and EGF, PACAP at 100 nM was co-incubated with 3 nM EGF for 3 days.

[3] = test system: hippocampal neurogenesis; test: PACAP/BrdU infusion, BrdU/NeuN co-labelling of the dentate gyrus; format: in vivo, mouse; settings: 600 nM pump concentration, 0.5 μl/hr, 7 days infusion plus 10 days survival, relative to vehicle
Protocol: 10 week old male mice (C57B1/2), maintained on a 12 hr light/dark cycle with food and water ad libidum, were infused in the right lateral ventricle with PACAP38 (Bachem), using a Alzet pump (1007D), for 3,5 days or 7 days at a daily dose of 31 ng/day (600 nM PACAP pump concentration infused at a rate of 0.5 μl/hr). Bromodeoxyuridine (BrdU) (50 mg/ml) was also included in the infusion vehicle (0.9% saline containing 1 mg/ml mouse serum albumin (Sigma)) to enable measurement of proliferation by quantitation of BrdU incorporation in the DNA. The group of infused with either PACAP/BrdU or vehicle/BrdU for 3,5 days and sacrificed at this time point. The group infused with either PACAP/BrdU or vehicle/BrdU for 7 days were allowed to survive a further 10 days. After the allotted time the mice were sacrificed, perfused with PBS the brains removed and frozen at −70° C. prior to sectioning for immumohistochemical analysis.
The procedure for doubling labeling of BrdU with NeuN was performed sequentially. […]
For all BrdU/NeuN co-labelling experiments, one to two sections per animal were analysed. […] The number of BrdU/NeuN-labelled cells per area of dentate granule cell layer was counted manually. […] Results of the dentate gyrus BrdU/NeuN counts are expressed as the average number of BrdU/NeuN-positive cells per dentate gyrus for each individual animal and reported as the mean ±SEM.

## pituitary adenylate cyclase-activating polypeptide [PACAP]
[1]
  sizes and number of neurospheres: observably greater than that of the control
[2]; PACAP 100 nM, 4 days, relative to control
  intracellular ATP levels: significantly increases intracellular ATP levels
[2]; PACAP 100 nM, EGF 3 nM, alone or combined, 3 days
  intracellular ATP levels, and hence NSC number: increased intracellular ATP levels
[2]; varying concentrations, non-adherent conditions, 3 days, relative to control, dose-dependent
  intracellular ATP levels, and hence cell number: statistically significant increase in intracellular ATP levels
[3]
  neurogenesis in the ipsilateral dentate gyrus (BrdU/NeuN positive cells/dentate gyrus): increase in neurogenesis
